Source: US5728724A, “Benzothiophene compounds” (Eli Lilly and Company, priority 1996, dated 1998)

Key:
Type in all cases: in vivo, Sprague Dawley rats
Serum Cholesterol = test: Serum cholesterol analysis in ovariectomized rats; conditions: OVX rats
Procedure: (§1) In the examples illustrating the methods, a post-menopausal model was used in which effects of different treatments upon circulating lipids were determined.
(§2) Seventy-five day old female Sprague Dawley rats (weight range of 200 to 225g) were obtained from Charles River Laboratories (Portage, Mich.). The animals were either bilaterally ovariectomized (OVX) or exposed to a Sham surgical procedure at Charles River Laboratories, and then shipped after one week. Upon arrival, they were housed in metal hanging cages in groups of 3 or 4 per cage and had ad libitum access to food calcium content approximately 0.5%) and water for one week. Room temperature was maintained at 22.2°±1.7° C. with a minimum relative humidity of 40%. The photoperiod in the room was 12 hours light and 12 hours dark.
(§3) Dosing Regimen Tissue Collection. After a one week acclimation period (therefore, two weeks post-OVX) daily dosing with test compound was initiated. […] Animals were dosed daily for 4 days. Following the dosing regimen, animals were weighed and anesthetized with a ketamine: Xylazine (2:1, V:V) mixture and a blood sample was collected by cardiac puncture. The animals were then sacrificed by asphyxiation with CO2, the uterus was removed through a midline incision, and a wet uterine weight was determined.
Cholesterol Analysis. Blood samples were allowed to clot at room temperature for 2 hours, and serum was obtained following centrifugation for 10 minutes at 3000 rpm. Serum cholesterol was determined using a Boehringer Mannheim Diagnostics high performance cholesterol assay. Briefly the cholesterol was oxidized to cholest-4-en-3-one and hydrogen peroxide. The hydrogen peroxide was then reacted with phenol and 4-aminophenazone in the presence of peroxidase to produce a p-quinone imine dye, which was read spectrophotemetrically at 500 nm. Cholesterol concentration was then calculated against a standard curve. The entire assay was automated using a Biomek Automated Workstation.

[1] = test system: femur density of ovariectomized rats; test: Osteoporosis Test (bone density of ovariectomized rats); conditions: OVX rats, daily for 35 days
From the text: Following the General Preparation Procedure, infra, the rats or treated daily for 35 days (6 rats per treatment group) and sacrificed by carbon dioxide asphyxiation on the 36th day. The 35 day time period is sufficient to allow maximal reduction in bone density, measured as described herein. At the time of sacrifice, the uteri are removed, dissected free of extraneous tissue, and the fluid contents are expelled before determination of wet weight in order to confirm estrogen deficiency associated with complete ovariectomy. […] The uteri are then placed in 10% neutral buffered formalin to allow for subsequent histological analysis. The right femurs are excised and digitilized x-rays generated and analyzed by an image analysis program (NIH image) at the distal metaphysis. The proximal aspect of the tibiae from these animals are also scanned by quantitative computed tomography. In general, ovariectomy of test animals will cause a significant reduction in femur density compared to intact, vehicle treated controls.

[2] = test system: Uterine Eosinophil Peroxidase (EPO); test: Uterine Eosinophil Peroxidase (EPO) Assay in ovariectomized rats; set-up: key: max velocity of A450 increase over a 15 s interval; conditions: 0.1 mg/kg, oral, daily for 4 days, OVX rats
Procedure: as §1, §2, §3
Uterine Eosinophil Peroxidase (EPO) Assay. Uteri were kept at 4° C. until time of enzymatic analysis. The uteri were then homogenized in 50 volumes of 50 mM Tris buffer (pH-8.0) containing 0.005% Triton X-100. Upon addition of 0.01% hydrogen peroxide and 10 mM O-phenylenediamine (final concentrations) in Tris buffer, increase in absorbance was monitored for one minute at 450 nm. The presence of eosonophils in the uterus is an indication of estrogenic activity of a compound. The maximal velocity of a 15 second interval was determined over the initial, linear portion of the reaction curve.

[3] = test system: uterus of ovariectomized (OVX) rats; test: Uterine weight in ovariectomized rats (post-menopausal model, agonist activity)
Procedure: as §1, §2, §3

C#C[C@]1(O)CC[C@H]2[C@@H]3CCc4cc(O)ccc4[C@H]3CC[C@@]21C [EE2, 17α-ethynyl estradiol, reference compound]
inhibition in vivo at 0.1 mg/kg (Serum Cholesterol; Rattus norvegicus, po, 96 h, 0.1 mg/kg, daily for 4 days, read-out: Serum Cholesterol (% decrease vs. OVX)): 81.4% | Serum cholesterol, result in words (Serum Cholesterol; oral, EE2 at 0.1 mg/kg/day): caused a decrease in serum cholesterol | Prevention of bone loss after ovariectomy, result in words [1]: usually prevents this loss | Uterine EPO (V. max) [2]: 116.4 | change in vivo at 0.1 mg/kg ([3]; Rattus norvegicus, po, 96 h, 0.1 mg/kg, daily for 4 days, read-out: Uterine Weight (% increase vs. OVX)): 86.3% | Uterine weight / uterine stimulation, result in words ([3]; oral, EE2 at 0.1 mg/kg/day): exerted a stimulatory action on the uterus so that EE2 uterine weight was substantially greater than the uterine weight of ovariectomized test animals
